Data on 3 compounds can be found in ChEMBL document CHEMBL1933031, “Discovery and bioactivity of 4-(2-arylpyrido[3',2':3,4]pyrrolo[1,2-f][1,2,4]triazin-4-yl) morpholine derivatives as novel PI3K inhibitors” (Bioorg Med Chem Lett, 2012).

Activity calls are given as the source filed them. No cut-off for these calls is given here. Where only a bound is given, the exact number is not on record here.

Assay [1] is described as follows: Inhibition of PI3K-mediated Akt phosphorylation at Ser473 at 3 uM by Western blot analysis.
For assay [2], the target named is Receptor tyrosine-protein kinase erbB-2 (Homo sapiens) (UniProt P04626). The assay is described as follows: Inhibition of ErbB2 at 10 uM.
In assay [3] the test system is MCF7. The assay is described as follows: Antiproliferative activity against human MCF7 cells. The assay is classed as functional, cell-based.
Assay [4] has as its target Proto-oncogene tyrosine-protein kinase Src (Homo sapiens) (UniProt P12931). Particulars: at 10 µM.
Description: Inhibition of c-Src at 10 uM
Assay [5] deals with Macrophage-stimulating protein receptor (Homo sapiens) (UniProt Q04912). In words: Inhibition of RON at 10 uM.
The nature of assay [6]: Cell cycle arrest in human Rh30 cells assessed as increase in subG1 cell phase at 10 uM by flow cytometric analysis. It counts as functional, cell-based. The following applies: SJRH30. (In general: A flow cytometer gives signals particle by particle.)
For assay [7], the target named is T1, Ephrin type-B receptor 2 (Homo sapiens) (UniProt P29323).
T1 sequence (whole entry): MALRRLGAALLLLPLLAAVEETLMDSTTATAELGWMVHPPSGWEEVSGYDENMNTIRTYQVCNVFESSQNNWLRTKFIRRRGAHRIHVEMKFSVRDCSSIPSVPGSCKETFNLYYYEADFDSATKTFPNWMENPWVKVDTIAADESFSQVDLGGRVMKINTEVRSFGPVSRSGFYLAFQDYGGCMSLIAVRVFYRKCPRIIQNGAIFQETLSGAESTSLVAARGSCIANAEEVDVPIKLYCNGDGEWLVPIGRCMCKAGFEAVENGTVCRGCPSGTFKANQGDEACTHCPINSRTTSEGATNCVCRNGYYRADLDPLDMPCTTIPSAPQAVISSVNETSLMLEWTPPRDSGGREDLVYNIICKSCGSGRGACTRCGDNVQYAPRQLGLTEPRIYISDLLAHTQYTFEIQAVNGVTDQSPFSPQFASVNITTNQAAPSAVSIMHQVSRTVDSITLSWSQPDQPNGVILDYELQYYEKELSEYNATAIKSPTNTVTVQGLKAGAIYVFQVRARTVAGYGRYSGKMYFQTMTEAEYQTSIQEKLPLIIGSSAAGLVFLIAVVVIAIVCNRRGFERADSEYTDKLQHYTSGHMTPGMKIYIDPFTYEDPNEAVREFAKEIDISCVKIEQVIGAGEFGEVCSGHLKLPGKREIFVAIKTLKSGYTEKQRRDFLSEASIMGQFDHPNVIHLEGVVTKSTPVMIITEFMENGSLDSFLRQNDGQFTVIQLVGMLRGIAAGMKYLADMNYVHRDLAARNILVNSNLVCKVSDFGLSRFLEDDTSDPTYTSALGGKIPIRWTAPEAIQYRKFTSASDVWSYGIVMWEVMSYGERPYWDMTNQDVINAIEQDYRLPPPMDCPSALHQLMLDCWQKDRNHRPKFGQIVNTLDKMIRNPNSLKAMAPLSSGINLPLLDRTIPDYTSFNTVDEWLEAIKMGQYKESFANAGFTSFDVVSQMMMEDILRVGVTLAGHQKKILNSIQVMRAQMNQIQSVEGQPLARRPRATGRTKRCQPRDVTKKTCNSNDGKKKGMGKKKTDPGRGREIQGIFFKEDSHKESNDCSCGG
The assay is described as follows: Inhibition of EPH-B2 at 10 uM.

Assay [8] can be described thus: Inhibition of PI3K-mediated p70S6K1 phosphorylation at Thr389 at 3 uM by Western blot analysis.
Assay [9] concerns ECV-304. In words: Antiproliferative activity against human ECV304 cells. The assay is classed as functional, cell-based.
Assay [10] concerns the target Insulin-like growth factor 1 receptor (Homo sapiens) (UniProt P08069). The assay is described as follows: Inhibition of IGF1R at 10 uM.
Assay [11] in a line: Inhibition of PI3K-mediated mTOR pathway by Western blot analysis. (In western blotting, separated proteins are transferred to a membrane and probed.)
Assay [12] concerns the target Platelet-derived growth factor receptor alpha (Homo sapiens) (UniProt P16234). The assay is described as follows: Inhibition of PDGFRalpha at 10 uM.
Assay [13] deals with HT-29. In words: Antiproliferative activity against human HT-29 cells. The assay is classed as functional, cell-based.
Assay [14] deals with Mast/stem cell growth factor receptor Kit (Homo sapiens) (UniProt P10721). The assay is described as follows: Inhibition of c-Kit at 10 uM.
The target of assay [15] is Proto-oncogene tyrosine-protein kinase receptor Ret (Homo sapiens) (UniProt P07949). In words: Inhibition of RET at 10 uM.
Assay [16] in a line: Cell cycle arrest in human Rh30 cells assessed as increase in G1 cell population at 1 to 10 uM by flow cytometric analysis. It counts as functional, cell-based. Particulars: SJRH30.
Assay [17] has as its target Epidermal growth factor receptor (Homo sapiens) (UniProt P00533). The following applies: at 10 µM.
Description: Inhibition of EGFR at 10 uM
Assay [18] addresses Phosphatidylinositol 4,5-bisphosphate 3-kinase catalytic subunit alpha isoform (Homo sapiens, UniProt P42336). In words: Inhibition of PI3Kalpha by luminescent kinase assay.
Assay [19] concerns the target Vascular endothelial growth factor receptor 2 (Homo sapiens) (UniProt P35968). The following applies: at 10 µM.
Description: Inhibition of KDR at 10 uM
Assay [20] is described as follows: Inhibition of PI3K-mediated Akt pathway by Western blot analysis.
The target of assay [21] is Hepatocyte growth factor receptor (Homo sapiens) (UniProt P08581). The assay is described as follows: Inhibition of c-Met at 10 uM.
Assay [22] is described as follows: Antiproliferative activity against human BEL-7402 cells.
Assay [23] has as its target Platelet-derived growth factor receptor beta (Homo sapiens) (UniProt P09619). In words: Inhibition of PDGFRbeta at 10 uM.

Chain of Epidermal growth factor receptor (Homo sapiens) (P00533 whole entry, canonical isoform): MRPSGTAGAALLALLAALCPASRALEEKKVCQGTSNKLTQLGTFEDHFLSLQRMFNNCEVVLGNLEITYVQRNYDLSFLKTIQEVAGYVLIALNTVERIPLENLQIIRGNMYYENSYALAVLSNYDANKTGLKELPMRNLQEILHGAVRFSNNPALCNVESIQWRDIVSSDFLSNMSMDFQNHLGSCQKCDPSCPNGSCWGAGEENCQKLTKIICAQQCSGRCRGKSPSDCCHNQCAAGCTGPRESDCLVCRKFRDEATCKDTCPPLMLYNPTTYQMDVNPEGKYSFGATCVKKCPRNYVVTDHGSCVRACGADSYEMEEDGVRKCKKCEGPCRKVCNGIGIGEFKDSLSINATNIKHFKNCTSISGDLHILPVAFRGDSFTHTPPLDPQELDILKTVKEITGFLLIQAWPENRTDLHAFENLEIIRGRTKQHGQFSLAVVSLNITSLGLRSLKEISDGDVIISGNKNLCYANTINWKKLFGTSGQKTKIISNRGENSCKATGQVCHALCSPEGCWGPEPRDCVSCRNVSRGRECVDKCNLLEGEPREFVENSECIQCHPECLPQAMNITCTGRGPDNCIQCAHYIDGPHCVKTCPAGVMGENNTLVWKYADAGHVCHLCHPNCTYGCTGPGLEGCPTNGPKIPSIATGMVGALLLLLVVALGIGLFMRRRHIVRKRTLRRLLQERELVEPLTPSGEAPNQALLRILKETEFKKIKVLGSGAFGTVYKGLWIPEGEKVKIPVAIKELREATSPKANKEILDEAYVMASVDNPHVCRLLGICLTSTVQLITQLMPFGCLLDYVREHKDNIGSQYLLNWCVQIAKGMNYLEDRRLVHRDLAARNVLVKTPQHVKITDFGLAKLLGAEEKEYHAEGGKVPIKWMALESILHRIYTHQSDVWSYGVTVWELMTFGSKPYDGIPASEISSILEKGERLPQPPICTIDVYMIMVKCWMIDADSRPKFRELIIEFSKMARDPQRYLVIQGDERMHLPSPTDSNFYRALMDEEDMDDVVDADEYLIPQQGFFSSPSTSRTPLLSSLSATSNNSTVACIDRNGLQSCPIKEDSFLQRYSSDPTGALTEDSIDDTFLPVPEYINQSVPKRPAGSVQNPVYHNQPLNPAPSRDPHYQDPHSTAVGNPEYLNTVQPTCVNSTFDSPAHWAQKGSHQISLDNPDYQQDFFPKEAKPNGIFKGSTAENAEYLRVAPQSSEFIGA
Chain of Proto-oncogene tyrosine-protein kinase receptor Ret (Homo sapiens) (P07949 whole entry): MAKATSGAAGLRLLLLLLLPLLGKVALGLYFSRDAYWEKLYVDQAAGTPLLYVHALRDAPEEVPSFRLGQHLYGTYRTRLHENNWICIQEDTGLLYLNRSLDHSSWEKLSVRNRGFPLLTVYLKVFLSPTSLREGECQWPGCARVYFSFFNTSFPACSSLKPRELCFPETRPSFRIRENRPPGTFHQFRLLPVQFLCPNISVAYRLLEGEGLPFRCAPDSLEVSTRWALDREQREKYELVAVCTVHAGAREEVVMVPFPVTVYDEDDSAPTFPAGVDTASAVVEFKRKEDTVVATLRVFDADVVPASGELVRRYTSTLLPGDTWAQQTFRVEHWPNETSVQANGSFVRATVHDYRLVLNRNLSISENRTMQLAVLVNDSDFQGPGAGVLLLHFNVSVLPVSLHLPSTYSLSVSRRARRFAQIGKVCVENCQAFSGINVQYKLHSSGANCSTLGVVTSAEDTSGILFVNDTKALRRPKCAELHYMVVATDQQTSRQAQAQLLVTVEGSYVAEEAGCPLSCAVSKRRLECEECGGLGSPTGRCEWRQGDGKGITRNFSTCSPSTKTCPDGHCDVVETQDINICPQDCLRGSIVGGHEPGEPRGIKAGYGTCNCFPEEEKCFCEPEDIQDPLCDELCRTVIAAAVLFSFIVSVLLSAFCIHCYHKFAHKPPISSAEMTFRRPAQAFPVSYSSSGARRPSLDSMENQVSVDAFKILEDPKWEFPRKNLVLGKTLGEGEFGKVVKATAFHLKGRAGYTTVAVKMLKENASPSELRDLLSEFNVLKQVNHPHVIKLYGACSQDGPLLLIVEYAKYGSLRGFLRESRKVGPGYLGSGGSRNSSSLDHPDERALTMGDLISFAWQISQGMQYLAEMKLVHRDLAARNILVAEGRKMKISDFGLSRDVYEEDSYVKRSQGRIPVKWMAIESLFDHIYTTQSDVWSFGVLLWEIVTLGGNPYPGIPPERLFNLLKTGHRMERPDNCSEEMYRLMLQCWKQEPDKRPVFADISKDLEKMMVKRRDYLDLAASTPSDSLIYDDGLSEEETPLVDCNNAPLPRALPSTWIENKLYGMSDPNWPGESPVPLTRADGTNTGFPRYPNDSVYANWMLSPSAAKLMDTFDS
Chain of Vascular endothelial growth factor receptor 2 (Homo sapiens) (P35968 whole entry): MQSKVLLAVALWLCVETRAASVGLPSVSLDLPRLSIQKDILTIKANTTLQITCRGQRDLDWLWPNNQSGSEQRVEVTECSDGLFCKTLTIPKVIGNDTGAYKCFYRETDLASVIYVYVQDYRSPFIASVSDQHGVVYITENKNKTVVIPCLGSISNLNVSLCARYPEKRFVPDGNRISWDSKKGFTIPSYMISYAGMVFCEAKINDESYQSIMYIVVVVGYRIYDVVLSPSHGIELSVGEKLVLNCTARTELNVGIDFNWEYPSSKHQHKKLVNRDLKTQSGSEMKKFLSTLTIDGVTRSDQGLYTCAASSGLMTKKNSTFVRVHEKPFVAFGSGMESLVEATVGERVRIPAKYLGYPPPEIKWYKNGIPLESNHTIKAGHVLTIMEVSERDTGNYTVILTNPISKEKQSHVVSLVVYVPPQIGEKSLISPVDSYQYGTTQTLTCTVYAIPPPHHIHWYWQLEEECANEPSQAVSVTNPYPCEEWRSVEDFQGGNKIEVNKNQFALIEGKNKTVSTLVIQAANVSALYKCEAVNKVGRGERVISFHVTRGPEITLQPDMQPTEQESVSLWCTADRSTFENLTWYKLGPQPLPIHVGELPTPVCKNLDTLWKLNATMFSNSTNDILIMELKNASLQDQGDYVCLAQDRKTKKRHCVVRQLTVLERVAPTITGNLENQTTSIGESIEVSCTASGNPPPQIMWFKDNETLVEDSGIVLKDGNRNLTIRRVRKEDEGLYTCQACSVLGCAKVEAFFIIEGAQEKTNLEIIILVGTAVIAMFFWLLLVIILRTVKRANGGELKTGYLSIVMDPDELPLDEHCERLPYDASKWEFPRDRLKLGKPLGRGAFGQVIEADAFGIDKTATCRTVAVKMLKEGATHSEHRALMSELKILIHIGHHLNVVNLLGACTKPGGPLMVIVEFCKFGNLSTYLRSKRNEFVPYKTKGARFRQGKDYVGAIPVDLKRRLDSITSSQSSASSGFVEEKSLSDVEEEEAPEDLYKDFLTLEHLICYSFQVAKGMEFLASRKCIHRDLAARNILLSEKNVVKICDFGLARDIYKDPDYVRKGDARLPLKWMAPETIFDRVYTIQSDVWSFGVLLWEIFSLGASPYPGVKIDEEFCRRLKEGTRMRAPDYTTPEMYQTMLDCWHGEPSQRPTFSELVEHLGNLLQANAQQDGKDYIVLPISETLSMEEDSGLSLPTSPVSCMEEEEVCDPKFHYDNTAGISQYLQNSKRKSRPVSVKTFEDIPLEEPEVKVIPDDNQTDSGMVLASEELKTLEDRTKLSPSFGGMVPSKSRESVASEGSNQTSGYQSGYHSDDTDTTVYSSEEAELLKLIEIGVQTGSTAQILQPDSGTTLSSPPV
Chain of Proto-oncogene tyrosine-protein kinase Src (Homo sapiens) (P12931 2-536 limits assumed): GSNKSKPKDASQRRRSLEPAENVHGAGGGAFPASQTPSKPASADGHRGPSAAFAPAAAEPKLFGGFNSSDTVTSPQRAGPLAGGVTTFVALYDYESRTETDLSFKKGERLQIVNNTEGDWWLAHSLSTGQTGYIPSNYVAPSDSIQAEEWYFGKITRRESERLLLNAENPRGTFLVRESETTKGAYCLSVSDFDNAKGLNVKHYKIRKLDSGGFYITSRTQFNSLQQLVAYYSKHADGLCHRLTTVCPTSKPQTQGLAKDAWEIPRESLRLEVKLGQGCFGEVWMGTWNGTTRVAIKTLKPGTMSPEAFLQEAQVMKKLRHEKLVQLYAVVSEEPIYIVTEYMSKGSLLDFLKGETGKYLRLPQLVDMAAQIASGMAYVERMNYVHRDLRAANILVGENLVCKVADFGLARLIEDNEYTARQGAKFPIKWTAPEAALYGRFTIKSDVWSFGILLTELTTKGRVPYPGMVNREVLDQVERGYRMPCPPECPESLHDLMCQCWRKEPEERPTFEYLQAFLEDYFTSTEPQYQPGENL

With `CCCC(CCC)C(=O)Oc1cccc(-c2nc(N3CCOCC3)c3cc4ncccc4n3n2)c1`, the inhibition result in [1] and in assay [8] was “Active” throughout. Moreover, the inhibition in assay [2] came out at 25.6%; in assay [4], 49.8%; in assay [5] it was 23.1%; in [7], 49.2%; in [10], 32.7%; in assay [12], 28.7%. Further, the inhibition in assay [14] worked out at 24.9%; in assay [15] it was 14.4%; in assay [17], 20.2%; in assay [19], 29.1%; in assay [21], 29%; in [23], 13.6%. In addition, the IC50 worked out at 7.3 µM in assay [3]; 2.5 µM in assay [9]; 37.5 µM in [13]; 0.0607 µM in assay [18]; 5.6 µM in assay [22]. In addition, the outcome in assay [6] and in assay [16] was Active. Also, the “mTOR pathway inhibition (qualitative)” value in [11] is “Dose-dependent effect”. For the same compound, in [20], the “Akt pathway inhibition (qualitative)” value was “Dose-dependent effect”.
On to `CC(=O)Oc1cccc(-c2nc(N3CCOCC3)c3cc4ncccc4n3n2)c1`, for which the inhibition result in [1] and in [8] was “Active” in each case. Also, the inhibition in assay [2] came out at 7.1%; in [4], 40%; in assay [5], 9.4%; in assay [7] it was 37.2%; in assay [10] it was 33.4%; in assay [12], 21.8%. In addition, the inhibition in [14] is 24.7%; in [15], 19%; in assay [17], 4.6%; in assay [19], 23.1%; in [21], 29%; in assay [23], 0%. The IC50 in assay [3] was 14.4 µM; in [9], 3.8 µM; in assay [13], above 50 µM; in assay [18] it was 0.0497 µM; in [22], 12.1 µM. Further, the result in assay [6] and in assay [16] was Active. Moreover, in [11], the “mTOR pathway inhibition (qualitative)” value is “Dose-dependent effect”. Further, the “Akt pathway inhibition (qualitative)” value in assay [20] was “Dose-dependent effect”.
As for `O=C(Oc1cccc(-c2nc(N3CCOCC3)c3cc4ncccc4n3n2)c1)c1ccco1`, the inhibition entry in [1] and in assay [8] was “inactive” throughout. Also, the inhibition was determined as 23.6% in assay [2]; 47.9% in [4]; 4.2% in [5]; 35.8% in [7]; 29.2% in assay [10]; 22.2% in [12]. Moreover, the inhibition in assay [14] came out at 26.9%; in assay [15], 22.8%; in assay [17], 11.8%; in assay [19] it was 24.7%; in assay [21] it was 32.5%; in [23], 13.5%. For the same compound, the IC50 in [3] came to 12.8 µM; in [9], 6 µM; in assay [13], 21.6 µM; in [18], 0.425 µM; in assay [22], 9.3 µM. For the same compound, the outcome in assay [6] and in assay [16] was Active. For the same compound, in assay [11], the “mTOR pathway inhibition (qualitative)” value was “Dose-dependent effect”. In addition, in assay [20], the “Akt pathway inhibition (qualitative)” value was “Dose-dependent effect”.

Broadly, the inhibition is how much of the control response was suppressed. What is called IC50 is the concentration that gives 50% inhibition. The low end stands for greater potency, the high end for weaker potency.
